Test results published in patent US20170165286A1, “COMPOSITIONS AND METHODS FOR TREATING DIABETES AND LIVER DISEASES” (Cempra Pharmaceuticals, Inc., priority 2014, published 2017).

What was measured:
[1] = test system: lung mRNA expression levels; experiment: Bleomycin-induced lung injury: quantitative RT-PCR of lung; type: in vivo; conditions: bleomycin mice lung, normalized to GAPDH, vehicle 1.00, heading says 50 mg/kg q.d.
Description: Bleomycin-Induced Lung Injury. Lung inflammation is induced in female mice by a single intratracheal administration of bleomycin. Twenty mice are divided into two groups. […] It is to be understood herein that 100 mg/kg in mice is generally considered to be equivalent to a 450-500 mg, such as 480 mg, dose in humans. Animals are sacrificed on Day 7.
Pathogen-free 7 weeks old female C57BL/6J mice are obtained from CLEA Japan (Tokyo, Japan) and allowed to acclimate at least 6 days. On day 0, twenty mice are induced to develop pulmonary fibrosis by a single intratracheal administration of bleomycin sulphate (BLM, Nippon Kayaku, Japan) in 0.9% saline in a volume of 50 μL per animal using a Microsprayer® (Penn-Century, USA). Individual body weight is measured daily during the experiment period. Survival, clinical signs and behavior of mice is monitored daily.
Solithromycin Reduces Inflammation In Mice Caused By Bleomycin-Induced Lung Injury. Pulmonary fibrosis is a problem in the management of patients who have received chemotherapy for malignancies particularly with regimens that contain bleomycin (BLM), methotrexate, cyclophosphamide, and many new agents. These patients are susceptible to pulmonary infections as well as to inflammation from pulmonary injury. […] The effects of solithromycin on the ability to prevent lung inflammation and fibrosis is described in a bleomycin induced-lung inflammation and fibrosis model. Group 1 (BLM-Vehicle): Ten BLM-induced pulmonary fibrosis model mice are orally administered vehicle (Carboxymethyl cellulose) at a volume of 10 mL/kg once daily from day −2 (two days before BLM administration) to day 6. […]
Quantitative RT-PCR. Total RNA was extracted from lung samples using RNAiso (Takara Bio, Japan). One μg of RNA was reverse-transcribed using a reaction mixture containing 4.4 mM MgCl2 (Roche, Switzerland), 40 U RNase inhibitor (Toyobo, Japan), 0.5 mM dNTP (Promega, USA), 6.28 μM random hexamer (Promega), 5× first strand buffer (Promega), 10 mM dithiothreitol (Invitrogen) and 200 U MMLV-RT (Invitrogen) in a final volume of 20 μL. The reaction was carried out for 1 hour at 37° C., followed by 5 minutes at 99° C. Real-time PCR was performed using real-time PCR DICE and SYBR premix Taq (Takara Bio). To calculate the relative mRNA expression level, the expression of each gene was normalized to that of reference gene GAPDH.
Analyses of BALF (bronchoalveolar lavage fluid). The cells in BALF are counted with a hemocytometer, and cell differentials are determined in cytospin preparations stained with Diff-Quik (Sysmex, Japan) MMP-9 in the supernatants from BALF are quantified by an enzyme-linked immunosorbent assay (ELISA; Cat# MMPT90, R&D Systems, USA). Histopathological assays for lung sections are performed according to standard methods. […]

STAM mice = experiment: STAM model: HE staining, NAFLD Activity score; type: in vivo; conditions: for NAFLD Activity Score: 5-9 wks
Description: NASH-HCC (STAM™) Model. C57BL/6 (15-day-pregnant female) mice are obtained from Charles River Laboratories Japan (Kanagawa, Japan). Male pups are selected for the study. NASH is induced in male mice by a single subcutaneous injection of 200 μg streptozotocin (STZ, Sigma-Aldrich, USA) solution 2 days after birth, followed by feeding a HFD (57 kcal % fat, cat#: HFD32, CLEA Japan, Japan) beginning at 4 weeks of age. At 5 weeks of age, mice are divided into a control group and one or more treated group (generally 8 mice per group). Animals are sacrificed at 9 weeks of age, and biochemical, histological, and gene expression analyses are performed.
During weeks 5-9 (starting at day 35±2), test compound is administered (generally orally) at various doses diluted to 10 mL/kg and according to various dosing protocols to treatment groups (8 mice each) while a second group (8 mice) is administered vehicle only. Animals are sacrificed at 9 weeks.
Histopathological analyses. For HE staining, sections are cut from paraffin blocks of left lateral liver tissue prefixed in Bouin's solution and stained with Lillie-Mayer's Hematoxylin (Muto Pure Chemicals, Japan) and eosin solution (Wako Pure Chemical Industries). NAFLD Activity score (NAS) is calculated according to the criteria of Kleiner (Kleiner D E. et al., Hepatology, 2005; 41:1313). A NAS≧5 with steatosis and hepatocyte ballooning is generally considered diagnostic of NASH.
Illustrative dose response test groups. Group 1-Normal. Eight normal mice are fed with a normal diet ad libitum without any treatment until 9 weeks of age. Group 2-Vehicle. Eight NASH mice are orally administered vehicle (0.5% w/v methylcellulose+0.2% Tween®80) in a volume of 10 mL/kg twice daily from 5 to 9 week of age. Group 3-solithromycin 5 mg/kg. Eight NASH mice are orally administered vehicle supplemented with solithromycin at a dose of 5 mg/kg in the morning and the vehicle in the evening (5 mg/kg/day) from 5 to 9 weeks of age. Group 4-solithromycin 10 mg/kg. Eight NASH mice are orally administered vehicle supplemented with solithromycin at a dose of 10 mg/kg twice daily (20 mg/kg/day) from 5 to 9 weeks of age. Group 5-solithromycin 25 mg/kg. Eight NASH mice are orally administered vehicle supplemented with solithromycin at a dose of 25 mg/kg twice daily (50 mg/kg/day) from 5 to 9 weeks of age. Group 6-solithromycin 50 mg/kg. Eight NASH mice are orally administered vehicle supplemented with solithromycin at a dose of 50 mg/kg once daily (50 mg/kg/day) from 5 to 9 weeks of age.

## CC[C@H]1OC(=O)[C@@](C)(F)C(=O)[C@H](C)[C@@H](O[C@@H]2O[C@H](C)C[C@H](N(C)C)[C@H]2O)[C@](C)(OC)C[C@@H](C)C(=O)[C@H](C)[C@H]2N(CCCCn3cc(-c4cccc(N)c4)nn3)C(=O)O[C@]12C [solithromycin]
[1]
  Relative MCP-1 mRNA expression: 0.38 ± 0.32
  Relative MMP-9 mRNA expression: 0.42 ± 0.45
[1]; listed as SOLI
  Relative TNF-α mRNA expression: 2.45 ± 2.10
[1]; listed as Solithromycin
  Relative TNF-α mRNA expression: up-regulated
STAM mice; 5 mg/kg q.d. oral, 5 mg/kg
  NAFLD Activity Score: no statistically significant difference
STAM mice; 5 mg/kg q.d. oral, listed as Solithromycin, 5 mg/kg
  NAFLD Activity Score: 4.8 ± 0.9
STAM mice; 10 mg/kg b.i.d. oral, 10 mg/kg
  NAFLD Activity Score: significantly decreased
STAM mice; 10 mg/kg b.i.d. oral, listed as Solithromycin, 10 mg/kg
  NAFLD Activity Score: 3.3 ± 0.9
STAM mice; 25 mg/kg b.i.d. oral, 25 mg/kg
  NAFLD Activity Score: significantly decreased
STAM mice; 25 mg/kg b.i.d. oral, listed as Solithromycin, 25 mg/kg
  NAFLD Activity Score: 2.9 ± 1.0
STAM mice; 50 mg/kg q.d. oral, 50 mg/kg
  NAFLD Activity Score: significant reduction
STAM mice; 50 mg/kg q.d. oral, listed as Solithromycin, 50 mg/kg
  NAFLD Activity Score: 3.0 ± 0.9
STAM mice; Groups 4-6
  Hepatocellular ballooning and inflammatory cell infiltration compared to vehicle group: significant improvements
